The source of these data is patent US20120022143A1, “RNA Interference Mediated Inhibition of the Thymic Stromal Lymphopoietin (TSLP) Gene Expression Using Short Interfering Nucliec Acid (siNA)” (Merck Sharp & Dohme Corp, priority 2009, published 2012).

[invAb] = inverted abasic unit; m = 2'-O-methyl; r = 2'-OH (RNA); f = 2'-fluoro

Data set [1] deals with TSLP mRNA. Description: Initial screening: TSLP mRNA knock-down by RT-PCR (Taqman) after RNAiMax transfection of NHLF cells. The data set is classed as cell-based. The settings on record: 10 nM siNA, human NHLF cells, 24 hrs post-transfection, relative to non-targeting control, normalized to GAPDH; mean ± s.d. from 2 experiments. As to the method:
(§1) All cells were obtained from ATCC (Manassas, Va.) unless otherwise indicated. Cells were grown and transfected under standard conditions, which are detailed below for each cell line.
NHLF (human; Lonza cat# CC-2512): Cells were cultured at 37° C. in the presence of 5% CO2 and grown Fibroblast Basal Medium (Lonza cat# CC-3β2) supplemented growth factors (provided with the kit) and 100 μg/mL of streptomycin and 100 U/mL penicillin.
(§2) All transfections were performed using RNAiMax (Invitrogen Cat# 13778-150) as per the manufacturer's instructions.
(§3) Both human and murine cell lines were transfected in the similar fashion. Cells were plated in all wells of a tissue-culture treated, 96-well plate at a final count of 5,000 cells/well in […], of appropriate culture media. Cells were cultured for 24 hours after plating at 37° C. in the presence of 5% CO2.
(§4) After 24 hours, complexes containing siNA and RNAiMax were created as follows: A solution of RNAiMax diluted 33-fold in OPTI-MEM was prepared. In parallel, solutions of the siNAs for testing were prepared to a final concentration of 120 nM in OPTI-MEM. After incubation of RNAiMax/OPTI-MEM solution at room temperature for 5 min, an equal volume of the siNA solution and the RNAiMax solution were added together for each of the siNAs.
(§5) This solution was incubated at room temperature for 20 minutes. After incubation, 20 uL of the solution was added to each of the relevant wells.
(§6) The final concentration of siNA in each well was 10 nM and the final volume of RNAiMax in each well was 0.3 ul.
(§7) The time of incubation with the RNAiMax-siNA complexes was 24 hours, unless otherwise indicated. There was no change in media between the transfection and harvesting of the cells unless otherwise indicated.
(§8) RNA was extracted from a 96-well plate using the TaqMan® Gene Expression Cells-to-CT™ Kit (Cat# 4399002) with a modified protocol. Briefly, a 60 uL (1 plate) or 110 uL (2 plates) of the Lysis Solution with DNase I was dispensed into each well of the Lysis Buffer Plate (twin.tec full skirt plate). The lysis buffer and stop plates were stored at 4° C. until the cells were washed.
(§9) The plate was spun at 1100 rpm for 5 minutes. The culture medium was aspirated and discarded from the wells of the culture plate. The lysis was performed automatically using a BioMek FX instrument and method. After the Biomek method was completed, the lysis plate was incubated for 2 min. at room temperature. The lysis plate can be stored for 2 hours at 4° C., or at −20° C. or −80° C. for two months.
(§10) Each well of the reverse transcription plate required 10 uL of 2× reverse transcriptase Buffer, luL of 20× reverse transcription enzyme and 2 uL of nuclease-free water. The reverse transcription master mix was prepared by mixing 2× reverse transcription buffer, 20× reverse transcription enzyme mix, and nuclease-free water. 13 uL of the reverse transcription master mix was dispensed into each well of the reverse transcription plate (semi-skirted). A separate reverse transcription plate was prepared for each cell plate. The plate was loaded onto a Biomek NX or Biomek FX Dual-96 and the Biomek method was run. The program is programmed to automatically added 7 uL of lysate from the cell lysis procedure described above into each well of the reverse transcription plate. The plate is sealed and spun on a centrifuge (1000 rpm for 30 seconds) to settle the contents to the bottom of the reverse transcription plate. The plate is placed in a thermocycler at 37° C. for 60 min, 95° C. for 5 min, and 4° C. until the plate is removed from the thermocycler. Upon removal, if not used immediately, the plate was frozen at −20° C.
A series of probes and primers were used to detect the various mRNA transcripts of the genes of TSLP, IL-8 and GAPDH in human cell lines. All the Taqman probes and primers for the experiments here-in described were supplied as pre-validated sets by Applied Biosystems, Inc. (see Table 2). […]
(In general: In qPCR the cycle at which signal appears reflects the starting amount.)

Data set [2] relates to mTSLP mRNA. Description: Initial screening: mouse TSLP mRNA knock-down by RT-PCR (Taqman) after RNAiMax transfection of NIH 3T3 cells. The data set is classed as cell-based. The settings on record: 10 nM siNA, 24 hrs post-transfection, mean ± s.d., summary from 2 screens. On the procedure:
as §1
NIH 3T3 (murine; ATCC cat#CRL-1658): Cells were cultured at 37° C. in the presence of 5% CO2 and grown in Dulbecco's modified Eagle's medium (DMEM) with 4 mM L-glutamine adjusted to contain 1.5 g/L sodium bicarbonate and 4.5 g/L glucose and supplemented with fetal bovine serum at a final concentration of 10% and 100 μg/mL of streptomycin and 100 U/mL penicillin.
as §2, §3, §4, §5, §6, §7, §8, §9, §10
A series of probes and primers were used to detect the various mRNA transcripts of the genes of TSLP, IL-8 and GAPDH in human cell lines. […]

For “25444-DC: siNA duplex: sense B GuGucAcAAuuAcAAGGAu TTB (SEQ ID NO: 71), antisense AUCcuuGuAAuuGuGAcAcUU (SEQ ID NO: 72) (sense GUGUCACAAUUACAAGGAUTT; antisense AUCCUUGUAAUUGUGACACUU; sense: DNA at AGT, 2'-fluoro at CU, [invAb] at 5' end, 3' end, backbone not given here; antisense: sugars from the 5' end rrrfffmfmmffmfmmfmfmm, backbone not given here)”, the “% KD TSLP” value in data set [1] worked out at 80 ± 5.3%. Further, in data set [2], the “% KD mTSLP NIH3T3” value was 19.5 ± 19%.
In the same order, the values of “25445-DC: siNA duplex: sense B GGGAuAGAAAAGuAGGuAA TTB (SEQ ID NO: 73), antisense UUAccuAcuuuucuAucccUU (SEQ ID NO: 74) (sense GGGAUAGAAAAGUAGGUAATT; antisense UUACCUACUUUUCUAUCCCUU; sense: DNA at AGT, 2'-fluoro at U, [invAb] at 5' end, 3' end, backbone not given here; antisense: sugars from the 5' end rrrfffmfffffffmffffmm, backbone not given here)” are −66 ± 42.7% and 36.1 ± 1.6%.
Taken in the same sequence, the figures for “25447-DC: siNA duplex: sense B uuuGuGAAcAcuuuuGAAA TTB (SEQ ID NO: 77), antisense UUUcAAAAGuGuucAcAAAUU (SEQ ID NO: 78) (sense UUUGUGAACACUUUUGAAATT; antisense UUUCAAAAGUGUUCACAAAUU; sense: DNA at AGT, 2'-fluoro at CU, [invAb] at 5' end, 3' end, backbone not given here; antisense: sugars from the 5' end rrrfmmmmmfmfffmfmmmmm, backbone not given here)” were 84 ± 4.6% and 18.5 ± 3.8%.
Taken in the same sequence, the figures for “25448-DC: siNA duplex: sense B uGuGAAcAcuuuuGAAAAu TTB (SEQ ID NO: 79), antisense AUUuucAAAAGuGuucAcAUU (SEQ ID NO: 80) (sense UGUGAACACUUUUGAAAAUTT; antisense AUUUUCAAAAGUGUUCACAUU; sense: DNA at AGT, 2'-fluoro at CU, [invAb] at 5' end, 3' end, backbone not given here; antisense: sugars from the 5' end rrrfffmmmmmfmfffmfmmm, backbone not given here)” were 80 ± 7% and 45.1 ± 6.3%.
For “25451-DC: siNA duplex: sense B uAAuuAcAGAAGAGuuucu TTB (SEQ ID NO: 85), antisense AGAAAcucuucuGuAAuuAUU (SEQ ID NO: 86) (sense UAAUUACAGAAGAGUUUCUTT; antisense AGAAACUCUUCUGUAAUUAUU; sense: DNA at AGT, 2'-fluoro at CU, [invAb] at 5' end, 3' end, backbone not given here; antisense: sugars from the 5' end rrrmmfffffffmfmmffmmm, backbone not given here)”, the “% KD TSLP” value in data set [1] was determined as 76 ± 16.4%. Further, the “% KD mTSLP NIH3T3” value in data set [2] is −37.4 ± 15.7%.
Take “25452-DC: siNA duplex: sense B uuGuGAAcAcuuuuGAAAA TTB (SEQ ID NO: 87), antisense UUUucAAAAGuGuucAcAAUU (SEQ ID NO: 88) (sense UUGUGAACACUUUUGAAAATT; antisense UUUUCAAAAGUGUUCACAAUU; sense: DNA at AGT, 2'-fluoro at CU, [invAb] at 5' end, 3' end, backbone not given here; antisense: sugars from the 5' end rrrffmmmmmfmfffmfmmmm, backbone not given here)”: the “% KD TSLP” value in data set [1] stood at 86 ± 3%. Besides, the “% KD mTSLP NIH3T3” value in data set [2] is recorded as 36.4 ± 7.9%.
“25453-DC: siNA duplex: sense B AuuAcAGAAGAGuuucuuA TTB (SEQ ID NO: 89), antisense UAAGAAAcucuucuGuAAuUU (SEQ ID NO: 90) (sense AUUACAGAAGAGUUUCUUATT; antisense UAAGAAACUCUUCUGUAAUUU; sense: DNA at AGT, 2'-fluoro at CU, [invAb] at 5' end, 3' end, backbone not given here; antisense: sugars from the 5' end rrrmmmmfffffffmfmmfmm, backbone not given here)”: the “% KD TSLP” value in data set [1] is on record as 81 ± 10.5%. In addition, in data set [2], the “% KD mTSLP NIH3T3” value is −8.6 ± 12.2%.
In the case of “25454-DC: siNA duplex: sense B AAuuuAuuuuGuGAAcAcu TTB (SEQ ID NO: 91), antisense AGUGuucAcAAAAuAAAuuUU (SEQ ID NO: 92) (sense AAUUUAUUUUGUGAACACUTT; antisense AGUGUUCACAAAAUAAAUUUU; sense: DNA at AGT, 2'-fluoro at CU, [invAb] at 5' end, 3' end, backbone not given here; antisense: sugars from the 5' end rrrmfffmfmmmmfmmmffmm, backbone not given here)”, the “% KD TSLP” value in data set [1] amounted to 63 ± 16.9%. Further, the “% KD mTSLP NIH3T3” value in data set [2] is on record as 30.7 ± 22.5%.
In the same order, the values of “25455-DC: siNA duplex: sense B AcAGAAGAGuuucuuAAcu TTB (SEQ ID NO: 93), antisense AGUuAAGAAAcucuucuGuUU (SEQ ID NO: 94) (sense ACAGAAGAGUUUCUUAACUTT; antisense AGUUAAGAAACUCUUCUGUUU; sense: DNA at AGT, 2'-fluoro at CU, [invAb] at 5' end, 3' end, backbone not given here; antisense: sugars from the 5' end rrrfmmmmmmfffffffmfmm, backbone not given here)” are 79 ± 11.3% and 4.9 ± 26%.
In the same order, the values of “25456-DC: siNA duplex: sense B uccuGAAAAucGAGuAuuA TTB (SEQ ID NO: 95), antisense UAAuAcucGAuuuucAGGAUU (SEQ ID NO: 96) (sense UCCUGAAAAUCGAGUAUUATT; antisense UAAUACUCGAUUUUCAGGAUU; sense: DNA at AGT, 2'-fluoro at CU, [invAb] at 5' end, 3' end, backbone not given here; antisense: sugars from the 5' end rrrfmfffmmfffffmmmmmm, backbone not given here)” are 23 ± 1.1% and 53.3 ± 0.3%.
Taken in the same sequence, the figures for “25457-DC: siNA duplex: sense B cucAGGAAAuGGcAcAAGA TTB (SEQ ID NO: 97), antisense UCUuGuGccAuuuccuGAGUU (SEQ ID NO: 98) (sense CUCAGGAAAUGGCACAAGATT; antisense UCUUGUGCCAUUUCCUGAGUU; sense: DNA at AGT, 2'-fluoro at CU, [invAb] at 5' end, 3' end, backbone not given here; antisense: sugars from the 5' end rrrfmfmffmffffffmmmmm, backbone not given here)” were 32 ± 2% and 81.5 ± 3.7%.
